Entries after “also recorded” stand apart in the source; their conditions may differ.
Tests used:
HCC1428-LTED cells = assay: Global mRNA expression profile similarity between SERDs (1022 differentially expressed genes, Pearson correlation); assay type: cell-based; details: 24 hours post treatment, 1022 transcripts, FIG. 1A, FIG. 3
Experimental: An RNA-seq library of 96 SERD RNA samples was prepared using a kit from NuGen Ovation® Universal RNA-Seq System Method (Illumina® Platforms) conforming to the manufacturer's protocol. The 50 bp rapid single-read flow cell was used to sequence the library on the Illumina HiSeq 2500 in the rapid mode. […] TPM was calculated as calculated measured as an expression unit and then quantile-normalized and log 2-transformed. […] ER-regulated genes were identified using two comparisons. First, genes were identified that were modulated by one or more SERM or SERD compounds in Table 1 and modulated in the opposite direction by estradiol ([log 2 FC]>2 and FDR<0.05 vs. DMSO control). To identify genes that are differentially expressed between SERD compound treatment and dimethyl sulfoxide (DMSO; control) treatment groups, a two-factor (treatment and dose) analysis of variance (ANOVA) model was used at respective dose and time points. The treatment factor was fixed, with seven levels: six SERD compounds and the DMSO control. The dose factor was also fixed, with two levels: low and high. All samples were treated at 24h. Post hoc contrast analyses were performed at each dose and time level, between each SERD compound treatment and the DMSO control. […] This analysis was performed using Array Studio (Qiagen). […] Expression profile similarity between compounds was assessed by Pearson correlation on the differentially expressed genes.
(§1) To evaluate the ER modulation by amcenestrant and other SERDs, we treated HCC1428-LTED (long term estrogen deprived) breast cancer cell lines with SERD compounds at either 300 nM (high) or 30 nM (low) in 24 hours. To unmask the ER-intrinsic activity, we then evaluated gene expression after compound treatment in HCC1428-LTED cells, which is a cell line that is hormone-deprived. Changes in global mRNA expression were assessed 24 hours post treatment.

[1] = test system: ERα target genes CXCL12 and BCAS1; assay: RT-qPCR of ERα target genes CXCL12 and Bcas1 in HCC1428-LTED cells; assay type: cell-based; details: for expression of CXCL12 by RT-qPCR: FIG. 1C; for expression of Bcas1 by RT-qPCR: FIG. 1D
Experimental: RNA was extracted using the RNeasy kit (Qiagen) per the manufacturers instruction, quantified by NanoDrop 8000 (ThermoScientific) and reverse-transcribed with cDNA archive kit (Applied Biosystems). Taqman gene expression assays (Applied Biosystems) were used to quantify PGR (Hs00172183_m1), Bcas 1 (Hs00952822_m1), CXCL12 (Hs03676656_mH), BLNK1(Hs00929914_m1), IL20 (Hs00218888_m1) and the house-keeping genes PGK (Hs00391480_m1) and GAPDH (Hs99999905 ml) The relative quantities were determined using ΔΔ threshold cycle (ΔΔCt), according to the manufacturer's instructions (Applied Biosystems).
as §1
Findings were confirmed by measuring the expression of two well-validated ER target genes, CXCL12 and BCAS1, by RT-qPCR. Gene expression analysis provided further confirmation of the differential response of these molecules on well-validated ERα target genes (Elife. 2016; 5, Endocr Relat Cancer. 2015; 22(5):713-24).

[2] = test system: ERα transcriptional activity in HCC1428-LTED cells; assay: ER activity score (GSVA on 87-gene ER signature, RNA-seq) in HCC1428-LTED cells; assay type: cell-based; details: for ER activity score / ERα transcriptional activity (GSVA on ER signature): 300 nM (high) or 30 nM (low), 24 hours, absence of exogenous estrogen, FIG. 1B
Experimental: The term “ER activity score,” as used herein, refers to a score obtained by using a computational method such as GSVA (Hanzelmann et al., GSVA: gene set variation analysis for microarray and RNA-seq data, in BMC Bioinformatics, 2013; 14:7, incorporated herein by reference in its entirety for its description of calculating scores using the GSVA method) on a gene expression data set obtained from a biological sample. An E2-induced score and an E2-suppressed score are calculated individually. […] The ER activity score is computed as follows: ER Activity Score=ER-induced score−E2-suppressed score.
An RNA-seq library of 96 SERD RNA samples was prepared using a kit from NuGen Ovation® Universal RNA-Seq System Method (Illumina® Platforms) conforming to the manufacturer's protocol. The 50 bp rapid single-read flow cell was used to sequence the library on the Illumina HiSeq 2500 in the rapid mode. […] TPM was calculated as calculated measured as an expression unit and then quantile-normalized and log 2-transformed. […] ER-regulated genes were identified using two comparisons. First, genes were identified that were modulated by one or more SERM or SERD compounds in Table 1 and modulated in the opposite direction by estradiol ([log 2 FC]>2 and FDR<0.05 vs. DMSO control). To identify genes that are differentially expressed between SERD compound treatment and dimethyl sulfoxide (DMSO; control) treatment groups, a two-factor (treatment and dose) analysis of variance (ANOVA) model was used at respective dose and time points. The treatment factor was fixed, with seven levels: six SERD compounds and the DMSO control. The dose factor was also fixed, with two levels: low and high. All samples were treated at 24h. Post hoc contrast analyses were performed at each dose and time level, between each SERD compound treatment and the DMSO control. […] This analysis was performed using Array Studio (Qiagen). The panel of 1022 genes identified as differentially expressed in at least one compound-versus-DMSO comparison were used for hierarchical clustering of compound treatment data normalized to DMSO control at respective dose and time points. Complete-linkage clustering was performed based on Pearson correlation coefficients. Expression profile similarity between compounds was assessed by Pearson correlation on the differentially expressed genes.
as §1
(§2) To assess the relative ER modulating activity of the compounds, a panel of ER regulated genes (87 genes, Table 3) was developed by transcriptional profiling of multiple cell lines to identify genes that were modulated by estradiol and then blocked by SERM and SERD. This panel of ER regulated genes can be used to measure ER modulation by SERMs and SERDs. An ER Activity Score was then assessed using gene set variation analysis (GSVA) on the ER Signature (BMC Bioinformatics. 2013; 14:7).

[3] = test system: ERα signaling in HCI013 PDX tumor model; assay: ER activity score (GSVA, 87-gene signature) in HCI013 PDX tumor model; assay type: in vivo, human; details: 8 h after last administration; SAR439859 100 mg/kg QD, GDC0810 100 mg/kg QD; FIG. 4B
Experimental: FIGS. 4A-B. Evaluation of target gene modulation in ERα ligands in an endocrine therapy-resistant tumor model. […] Data represent mean and standard deviation for 3 replicates for CXCL12 gene expression. An ER Signature of 87 genes was that were modulated by estradiol and then blocked by SERM and SERD compounds was used to calculate the ER Activity Score and was assessed using gene set variation analysis (GSVA). Data represents the mean and deviation from the mean for each of the described treatments.
as §2
The ERα transcriptional activity was analyzed in the HCI013 model using the panel of genes corresponding to the ER gene signature derived from the in vitro cell line analysis as previously described.

[4] = test system: ERα target genes PGR and CXCL12 in HCI013 tumors; assay: RT-qPCR of PGR and CXCL12 in HCI013 PDX tumors; assay type: in vivo, human
Experimental: FIG. 2. […] For FIG. 2 *P<0.05; denotes significance compared to vehicle treated group at end of study using unpaired t test. FIGS. 4A-B. Evaluation of target gene modulation in ERα ligands in an endocrine therapy-resistant tumor model. […] Data represent mean and standard deviation for 3 replicates for CXCL12 gene expression. An ER Signature of 87 genes was that were modulated by estradiol and then blocked by SERM and SERD compounds was used to calculate the ER Activity Score and was assessed using gene set variation analysis (GSVA). Data represents the mean and deviation from the mean for each of the described treatments. RNA was extracted using the RNeasy kit (Qiagen) per the manufacturers instruction, quantified by NanoDrop 8000 (ThermoScientific) and reverse-transcribed with cDNA archive kit (Applied Biosystems). Taqman gene expression assays (Applied Biosystems) were used to quantify PGR (Hs00172183_m1), Bcas 1 (Hs00952822_m1), CXCL12 (Hs03676656_mH), BLNK1(Hs00929914_m1), IL20 (Hs00218888_m1) and the house-keeping genes PGK (Hs00391480_m1) and GAPDH (Hs99999905 ml) The relative quantities were determined using ΔΔ threshold cycle (ΔΔCt), according to the manufacturer's instructions (Applied Biosystems).

Ki67 = assay: IHC Ki67 protein expression (percent positive tumor cells) in paired tumor biopsies, Phase 1/2 study; assay type: in vivo, human; details: screening to Cycle 2, Day 28; 400 mg PO QD; n=7; range −30% to +30%; FIG. 6C
Experimental: Staining was evaluated in tumor cells only. For ER and PgR expression, H-scores were calculated.

ER pathway = assay: ER activation score by GSVA (RNA-seq) in paired tumor biopsies, Phase 1/2 study; assay type: in vivo, human

SMILES	correlation of induced expression profile to that of fulvestrant (HCC1428-LTED cells)	expression of CXCL12 by RT-qPCR [1]	expression of Bcas1 by RT-qPCR [1]	ER activity score / ERα transcriptional activity (GSVA on ER signature) [2]	ER activity score / ERα transcriptional activity (GSVA on ER signature) ([2]; listed as fulvestrant)	modulation of ERα intrinsic activity in the absence of E2 (inverse agonist activity) [2]	ERα transcriptional activity (ER activity score) in HCI013 model [3]	CXCL12 gene expression in HCI013 tumors (RT-qPCR) ([4]; 8 h after last administration, SAR439859 100 mg/kg QD compared to fulvestrant 200 mg/kg Q2W or GDC0810 100 mg/kg QD, FIG. 4A)	PGR gene expression in HCI013 tumors (RT-qPCR) ([4]; 8 hours after last administration, SAR439859 100 mg/kg compared to fulvestrant 200 mg/kg or GDC0810 100 mg/kg, FIG. 2)	median change from screening in percentage of Ki67 positive cells (Ki67) [%]	ER activation score by GSVA, median change from screening (ER pathway; all patients with paired biopsies, n=5, range −1.1 to +0.4, FIG. 6D)	ER activation score by GSVA, median change from screening, patients who showed clinical benefit (ER pathway; patients with clinical benefit, n=4, range −1.1 to 0)	ER activation score by GSVA, change from screening, patient with no clinical benefit (ER pathway; the one patient with no clinical benefit)
C[C@@H]1Cc2c([nH]c3ccccc23)[C@@H](c2c(F)cc(/C=C/C(=O)O)cc2F)N1CC(C)(C)F [AZD9496]	only weakly correlated	failed to elicit any significant change	failed to elicit any significant change	only partially reduced; also recorded: only partially inhibited	–	–	–	–	–	–	–	–	–
C[C@]12CC[C@@H]3c4ccc(O)cc4C[C@@H](CCCCCCCCC[S+]([O-])CCCC(F)(F)C(F)(F)F)[C@H]3[C@@H]1CC[C@@H]2O (stereo partly drawn) [Fulvestrant]	–	–	–	deep inhibition	strongly reduced	profound modulation	–	–	–	–	–	–	–
CC/C(=C(/c1ccc(/C=C/C(=O)O)cc1)c1ccc2[nH]ncc2c1)c1ccc(F)cc1Cl [GDC-0810]	only weakly correlated	failed to elicit any significant change	failed to elicit any significant change	only partially reduced; also recorded: only partially inhibited	–	–	suppressive activity	–	–	–	–	–	–
O=C(O)c1ccc2c(c1)CCCC(c1ccc(Cl)cc1Cl)=C2c1ccc(O[C@H]2CCN(CCCF)C2)cc1 [SAR439859, 6-(2,4-dichlorophenyl)-5-[4-[(3S)-1-(3-fluoropropyl)pyrrolidin-3-yl]oxyphenyl]-8,9-dihydro-7H-benzo[7]annulene-2-carboxylic acid]	closely correlated	inhibited expression	induced expression	strongly reduced; also recorded: deep inhibition	–	profound modulation	more marked ERα suppression	stronger inhibition	stronger inhibition	−8	−0.4	−0.6	+0.4
